Measurements from article PMC5635128 (Scientific Reports, 2017).

Assays:
Assay in all cases: biochemical
Set-up in all cases: KINOMEscan competition binding assay, kinase captured on immobilized ligand, per cent of DMSO control
Settings in all cases: read-out: % Ctrl
[1] = biological target: T1, TIE2 (Homo sapiens, UniProt Q02763)
T1 construct: gene TEK
Description: (§1) Competition binding assays were performed by DiscoverX (Freemont, CA, USA). […] S-Score^35 = (number of non-mutant kinases with %Ctrl < 35)/(number of non-mutant kinases tested). […] Kds are calculated […] by measuring the amount of kinase captured on the solid support as a function of the test compound concentration (n = 2, mean ± range).

[2] = biological target: TLK1 (Homo sapiens, UniProt Q9UKI8)
Description: as §1

[3] = biological target: TLK2 (Homo sapiens, UniProt Q86UE8)
Description: as §1

[4] = biological target: TNIK (Homo sapiens, UniProt Q9UKE5)
Description: as §1

[5] = biological target: TNK1 (Homo sapiens, UniProt Q13470)
Description: as §1

[6] = biological target: TNK2 (Homo sapiens, UniProt Q07912)
Description: as §1

[7] = biological target: TNNI3K (Homo sapiens, UniProt Q59H18)
Description: as §1

[8] = biological target: T2, TRKA (Homo sapiens, UniProt P04629)
T2 construct: gene NTRK1
Description: as §1

[9] = biological target: T3, TRKB (Homo sapiens, UniProt Q16620)
T3 construct: gene NTRK2
Description: as §1

[10] = biological target: T4, TRKC (Homo sapiens, UniProt Q16288)
T4 construct: gene NTRK3
Description: as §1

[11] = biological target: TRPM6 (Homo sapiens, UniProt Q9BX84)
Description: as §1

[12] = biological target: TSSK1B (Homo sapiens, UniProt Q9BXA7)
Description: as §1

[13] = biological target: TTK (Homo sapiens, UniProt P33981)
Description: as §1

[14] = biological target: TXK (Homo sapiens, UniProt P42681)
Description: as §1

[15] = biological target: T5, TYK2(JH1domain-catalytic) (Homo sapiens, UniProt P29597)
T5 construct: JH1domain-catalytic
Description: as §1

[16] = biological target: T6, TYK2(JH2domain-pseudokinase) (Homo sapiens, UniProt P29597)
T6 construct: JH2domain-pseudokinase
Description: as §1

[17] = biological target: TYRO3 (Homo sapiens, UniProt Q06418)
Description: as §1

[18] = biological target: ULK1 (Homo sapiens, UniProt O75385)
Description: as §1

[19] = biological target: ULK2 (Homo sapiens, UniProt Q8IYT8)
Description: as §1

[20] = biological target: ULK3 (Homo sapiens, UniProt Q6PHR2)
Description: as §1

[21] = biological target: T7, VEGFR2 (Homo sapiens, UniProt P35968)
T7 construct: gene KDR
Description: as §1

[22] = biological target: VRK2 (Homo sapiens, UniProt Q86Y07)
Description: as §1

[23] = biological target: WEE1 (Homo sapiens, UniProt P30291)
Description: as §1

[24] = biological target: WEE2 (Homo sapiens, UniProt P0C1S8)
Description: as §1

[25] = biological target: WNK1 (Homo sapiens, UniProt Q9H4A3)
Description: as §1

[26] = biological target: WNK3 (Homo sapiens, UniProt Q9BYP7)
Description: as §1

[27] = biological target: T8, YANK1 (Homo sapiens, UniProt Q8WU08)
T8 construct: gene STK32A
Description: as §1

[28] = biological target: T9, YANK2 (Homo sapiens, UniProt Q9NY57)
T9 construct: gene STK32B
Description: as §1

[29] = biological target: T10, YANK3 (Homo sapiens, UniProt Q86UX6)
T10 construct: gene STK32C
Description: as §1

[30] = biological target: T11, YES (Homo sapiens, UniProt P07947)
T11 construct: gene YES1
Description: as §1

[31] = biological target: T12, YSK1 (Homo sapiens, UniProt O00506)
T12 construct: gene STK25
Description: as §1

[32] = biological target: T13, YSK4 (Homo sapiens, UniProt Q56UN5)
T13 construct: gene MAP3K19
Description: as §1

[33] = biological target: T14, ZAK (Homo sapiens, UniProt Q9NYL2)
T14 construct: gene MAP3K20
Description: as §1

[34] = biological target: ZAP70 (Homo sapiens, UniProt P43403)
Description: as §1

Sequence of TNK1 (Q13470 whole entry): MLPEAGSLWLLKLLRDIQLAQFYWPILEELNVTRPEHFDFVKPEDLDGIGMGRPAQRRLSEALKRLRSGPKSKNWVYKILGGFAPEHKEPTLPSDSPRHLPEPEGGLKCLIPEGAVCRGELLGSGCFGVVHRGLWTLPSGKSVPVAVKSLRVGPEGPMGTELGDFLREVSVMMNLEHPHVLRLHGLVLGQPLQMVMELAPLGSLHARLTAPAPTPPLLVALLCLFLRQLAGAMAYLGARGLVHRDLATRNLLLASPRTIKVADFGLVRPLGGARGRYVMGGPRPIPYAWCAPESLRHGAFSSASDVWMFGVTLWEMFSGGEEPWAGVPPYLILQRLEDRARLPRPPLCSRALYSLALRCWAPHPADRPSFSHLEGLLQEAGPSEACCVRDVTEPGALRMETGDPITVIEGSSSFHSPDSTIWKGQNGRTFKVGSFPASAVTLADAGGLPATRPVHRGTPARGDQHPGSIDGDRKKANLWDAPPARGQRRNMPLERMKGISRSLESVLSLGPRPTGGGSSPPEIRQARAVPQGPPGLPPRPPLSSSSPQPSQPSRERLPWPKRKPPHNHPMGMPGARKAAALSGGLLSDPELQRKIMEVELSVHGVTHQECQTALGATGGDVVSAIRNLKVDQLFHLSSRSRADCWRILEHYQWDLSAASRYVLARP
Sequence of WEE1 (P30291 whole entry): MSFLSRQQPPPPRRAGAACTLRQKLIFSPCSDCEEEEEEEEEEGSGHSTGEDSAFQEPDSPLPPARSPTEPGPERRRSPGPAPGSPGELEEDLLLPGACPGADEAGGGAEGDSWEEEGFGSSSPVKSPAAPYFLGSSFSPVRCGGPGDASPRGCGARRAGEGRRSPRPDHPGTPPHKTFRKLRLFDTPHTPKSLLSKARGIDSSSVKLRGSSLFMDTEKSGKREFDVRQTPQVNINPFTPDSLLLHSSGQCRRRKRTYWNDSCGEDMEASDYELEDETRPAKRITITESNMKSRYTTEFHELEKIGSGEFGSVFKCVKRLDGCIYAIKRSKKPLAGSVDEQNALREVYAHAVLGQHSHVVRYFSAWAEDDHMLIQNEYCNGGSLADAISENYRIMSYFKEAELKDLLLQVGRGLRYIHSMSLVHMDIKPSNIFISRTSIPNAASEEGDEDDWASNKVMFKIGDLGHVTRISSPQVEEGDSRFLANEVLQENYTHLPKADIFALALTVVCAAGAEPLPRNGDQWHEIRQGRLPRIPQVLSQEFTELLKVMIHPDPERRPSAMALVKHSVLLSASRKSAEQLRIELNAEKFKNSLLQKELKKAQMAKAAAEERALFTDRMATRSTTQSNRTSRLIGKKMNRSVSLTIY
Sequence of TSSK1B (Q9BXA7 whole entry): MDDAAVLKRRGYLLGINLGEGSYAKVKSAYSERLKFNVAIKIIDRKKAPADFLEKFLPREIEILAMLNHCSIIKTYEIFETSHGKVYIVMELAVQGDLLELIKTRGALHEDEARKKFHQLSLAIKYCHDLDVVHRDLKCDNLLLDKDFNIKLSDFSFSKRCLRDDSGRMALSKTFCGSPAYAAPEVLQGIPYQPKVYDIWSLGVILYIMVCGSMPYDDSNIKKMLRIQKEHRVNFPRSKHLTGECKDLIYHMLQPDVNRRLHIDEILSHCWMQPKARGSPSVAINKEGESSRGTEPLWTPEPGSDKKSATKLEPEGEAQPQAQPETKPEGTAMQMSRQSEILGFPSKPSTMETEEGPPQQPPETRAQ
Sequence of VRK2 (Q86Y07 whole entry): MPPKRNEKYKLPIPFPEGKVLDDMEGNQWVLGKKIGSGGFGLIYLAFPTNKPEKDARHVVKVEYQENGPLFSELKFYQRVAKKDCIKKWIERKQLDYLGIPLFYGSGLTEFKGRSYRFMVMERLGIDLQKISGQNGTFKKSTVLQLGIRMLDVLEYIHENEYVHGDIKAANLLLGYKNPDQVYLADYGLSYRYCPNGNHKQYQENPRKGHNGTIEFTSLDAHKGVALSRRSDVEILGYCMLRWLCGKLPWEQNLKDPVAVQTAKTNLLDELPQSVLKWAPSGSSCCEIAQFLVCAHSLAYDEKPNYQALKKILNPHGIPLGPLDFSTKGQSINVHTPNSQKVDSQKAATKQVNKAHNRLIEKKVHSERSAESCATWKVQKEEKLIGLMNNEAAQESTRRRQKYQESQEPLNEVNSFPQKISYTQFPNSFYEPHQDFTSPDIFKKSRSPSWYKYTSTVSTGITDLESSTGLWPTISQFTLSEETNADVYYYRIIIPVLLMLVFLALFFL
Sequence of TYRO3 (Q06418 whole entry): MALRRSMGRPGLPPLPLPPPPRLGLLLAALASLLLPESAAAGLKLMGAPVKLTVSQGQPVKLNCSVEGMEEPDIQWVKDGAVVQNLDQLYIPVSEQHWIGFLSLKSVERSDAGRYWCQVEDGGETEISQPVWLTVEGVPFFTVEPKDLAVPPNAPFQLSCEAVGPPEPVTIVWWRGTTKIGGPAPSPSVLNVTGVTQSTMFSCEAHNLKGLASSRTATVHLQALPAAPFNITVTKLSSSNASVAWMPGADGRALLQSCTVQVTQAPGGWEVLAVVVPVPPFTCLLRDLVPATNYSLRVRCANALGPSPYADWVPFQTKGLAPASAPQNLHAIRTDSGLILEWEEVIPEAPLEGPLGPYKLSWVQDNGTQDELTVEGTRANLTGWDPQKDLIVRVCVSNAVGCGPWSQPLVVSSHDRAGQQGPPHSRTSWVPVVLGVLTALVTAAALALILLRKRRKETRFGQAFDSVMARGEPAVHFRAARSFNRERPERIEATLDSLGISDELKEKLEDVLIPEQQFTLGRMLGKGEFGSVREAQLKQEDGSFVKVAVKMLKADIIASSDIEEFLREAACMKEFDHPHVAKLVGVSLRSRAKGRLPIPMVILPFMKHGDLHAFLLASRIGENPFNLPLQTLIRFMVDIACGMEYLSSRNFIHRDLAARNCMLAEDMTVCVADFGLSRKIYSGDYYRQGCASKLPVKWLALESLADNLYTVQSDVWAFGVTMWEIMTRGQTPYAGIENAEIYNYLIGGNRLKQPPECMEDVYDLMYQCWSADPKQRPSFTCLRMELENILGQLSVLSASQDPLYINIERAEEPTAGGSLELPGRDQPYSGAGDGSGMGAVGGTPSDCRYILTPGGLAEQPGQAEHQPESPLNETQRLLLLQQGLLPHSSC
T1 sequence (Q02763 whole entry): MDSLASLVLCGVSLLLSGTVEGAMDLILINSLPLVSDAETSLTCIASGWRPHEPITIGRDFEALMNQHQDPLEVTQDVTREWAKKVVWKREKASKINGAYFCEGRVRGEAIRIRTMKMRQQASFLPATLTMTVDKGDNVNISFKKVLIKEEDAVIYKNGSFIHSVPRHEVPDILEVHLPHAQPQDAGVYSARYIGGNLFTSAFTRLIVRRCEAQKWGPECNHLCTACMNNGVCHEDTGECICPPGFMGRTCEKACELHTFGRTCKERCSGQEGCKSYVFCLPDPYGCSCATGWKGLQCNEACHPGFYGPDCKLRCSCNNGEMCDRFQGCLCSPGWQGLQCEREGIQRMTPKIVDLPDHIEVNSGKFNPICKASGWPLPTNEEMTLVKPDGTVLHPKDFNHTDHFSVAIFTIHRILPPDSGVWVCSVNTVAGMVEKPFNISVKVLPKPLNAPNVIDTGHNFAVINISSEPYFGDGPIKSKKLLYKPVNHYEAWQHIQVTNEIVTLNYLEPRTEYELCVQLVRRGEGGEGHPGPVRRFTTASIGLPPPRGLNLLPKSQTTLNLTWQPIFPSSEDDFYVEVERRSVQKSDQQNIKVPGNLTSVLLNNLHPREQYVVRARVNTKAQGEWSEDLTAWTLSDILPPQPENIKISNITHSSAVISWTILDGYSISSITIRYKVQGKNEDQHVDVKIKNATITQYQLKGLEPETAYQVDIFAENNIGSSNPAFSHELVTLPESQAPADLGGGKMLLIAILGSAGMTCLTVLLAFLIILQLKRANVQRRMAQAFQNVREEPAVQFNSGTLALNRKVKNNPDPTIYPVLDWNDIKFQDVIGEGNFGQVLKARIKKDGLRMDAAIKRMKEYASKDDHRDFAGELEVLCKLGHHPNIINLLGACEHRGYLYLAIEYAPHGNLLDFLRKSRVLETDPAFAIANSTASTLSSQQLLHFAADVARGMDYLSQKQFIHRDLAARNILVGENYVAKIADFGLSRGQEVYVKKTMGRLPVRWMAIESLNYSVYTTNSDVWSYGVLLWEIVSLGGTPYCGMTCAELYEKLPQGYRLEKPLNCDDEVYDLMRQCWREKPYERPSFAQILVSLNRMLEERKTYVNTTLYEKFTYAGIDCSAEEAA
Sequence of TNNI3K (Q59H18 whole entry): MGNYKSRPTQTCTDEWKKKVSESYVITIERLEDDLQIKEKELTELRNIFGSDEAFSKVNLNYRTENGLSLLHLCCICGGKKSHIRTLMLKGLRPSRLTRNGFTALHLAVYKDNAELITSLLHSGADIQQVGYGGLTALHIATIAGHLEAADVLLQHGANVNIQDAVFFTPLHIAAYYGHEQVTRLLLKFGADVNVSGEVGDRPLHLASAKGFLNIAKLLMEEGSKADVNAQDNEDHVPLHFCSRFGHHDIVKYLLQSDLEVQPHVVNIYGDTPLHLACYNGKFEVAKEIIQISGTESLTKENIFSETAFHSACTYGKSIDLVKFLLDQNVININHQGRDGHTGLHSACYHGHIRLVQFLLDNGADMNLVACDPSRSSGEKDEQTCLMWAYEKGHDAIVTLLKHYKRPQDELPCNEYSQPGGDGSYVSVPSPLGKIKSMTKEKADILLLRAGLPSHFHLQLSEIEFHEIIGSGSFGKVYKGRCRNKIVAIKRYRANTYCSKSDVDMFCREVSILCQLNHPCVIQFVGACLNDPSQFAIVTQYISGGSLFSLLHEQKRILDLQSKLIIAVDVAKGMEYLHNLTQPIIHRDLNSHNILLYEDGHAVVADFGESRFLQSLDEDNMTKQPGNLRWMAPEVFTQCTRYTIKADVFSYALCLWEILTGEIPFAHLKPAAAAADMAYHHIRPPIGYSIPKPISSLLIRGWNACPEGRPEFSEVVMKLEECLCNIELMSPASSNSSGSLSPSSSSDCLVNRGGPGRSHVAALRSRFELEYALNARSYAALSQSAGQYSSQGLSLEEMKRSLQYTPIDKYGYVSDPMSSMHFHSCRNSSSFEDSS

- percent of control binding at 10 µM [1]: 100%
- percent of control binding at 10 µM [2]: 100%
- percent of control binding at 10 µM [3]: 83%
- percent of control binding at 10 µM [4]: 85%
- percent of control binding at 10 µM [5]: 88%
- percent of control binding at 10 µM [6]: 92%
- percent of control binding at 10 µM [7]: 98%
- percent of control binding at 10 µM [8]: 93%
- percent of control binding at 10 µM [9]: 100%
- percent of control binding at 10 µM [10]: 100%
- percent of control binding at 10 µM [11]: 60%
- percent of control binding at 10 µM [12]: 83%
- percent of control binding at 10 µM [13]: 99%
- percent of control binding at 10 µM [14]: 100%
- percent of control binding at 10 µM [15]: 97%
- percent of control binding at 10 µM [16]: 86%
- percent of control binding at 10 µM [17]: 93%
- percent of control binding at 10 µM [18]: 79%
- percent of control binding at 10 µM [19]: 98%
- percent of control binding at 10 µM [20]: 71%
- percent of control binding at 10 µM [21]: 82%
- percent of control binding at 10 µM [22]: 58%
- percent of control binding at 10 µM [23]: 82%
- percent of control binding at 10 µM [24]: 88%
- percent of control binding at 10 µM [25]: 61%
- percent of control binding at 10 µM [26]: 50%
- percent of control binding at 10 µM [27]: 60%
- percent of control binding at 10 µM [28]: 84%
- percent of control binding at 10 µM [29]: 72%
- percent of control binding at 10 µM [30]: 87%
- percent of control binding at 10 µM [31]: 88%
- percent of control binding at 10 µM [32]: 81%
- percent of control binding at 10 µM [33]: 100%
- percent of control binding at 10 µM [34]: 100%
Structure (SMILES): COc1cc(O)c2c(c1)OC(O)(c1ccc(OCc3ccccc3)cc1)CC2=O (stereo not shown) [6E11, 2-(4-(benzyloxy)phenyl)-2,5-dihydroxy-7-methoxychroman-4-one]
